Results taken from US20220089636A1, “TETRAZOLONE SUBSTITUTED STEROIDS AND USE THEREOF” (Beijing Xuanyi PharmaSciences Co., Ltd., priority 2019, published 2022).
pEC50: −log10 of the molar value. Read-outs that look alike come from different tables or passages of the source.

Key:
[1] = molecular target: T1, α1β2γ2 GABAA receptor (Homo sapiens, UniProt P14867+P47870); experiment: Patch clamp electrophysiology assay of recombinant α1β2γ2 GABAA receptors (potentiation of 2 μM GABA-evoked Cl- current); assay type: cell-based; settings: HEK293T cells stably transfected with α1β2γ2 GABAA; for pEC50: whole cell, 2 μM GABA, -80 mV
T1 construct: expressed in transfected cells
T1 sequence (P14867 28-456): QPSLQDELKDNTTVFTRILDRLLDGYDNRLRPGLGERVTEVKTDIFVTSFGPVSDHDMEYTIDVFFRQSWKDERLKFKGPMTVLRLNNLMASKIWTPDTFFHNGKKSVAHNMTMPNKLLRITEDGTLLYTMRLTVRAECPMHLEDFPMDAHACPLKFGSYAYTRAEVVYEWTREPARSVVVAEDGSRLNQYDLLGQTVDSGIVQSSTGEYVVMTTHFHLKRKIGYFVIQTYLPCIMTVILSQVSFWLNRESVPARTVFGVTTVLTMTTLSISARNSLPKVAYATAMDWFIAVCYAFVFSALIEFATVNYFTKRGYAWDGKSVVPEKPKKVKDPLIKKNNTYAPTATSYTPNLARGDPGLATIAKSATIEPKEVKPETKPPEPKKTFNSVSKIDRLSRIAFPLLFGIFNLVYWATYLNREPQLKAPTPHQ
T1 sequence (P47870 25-512 limits assumed): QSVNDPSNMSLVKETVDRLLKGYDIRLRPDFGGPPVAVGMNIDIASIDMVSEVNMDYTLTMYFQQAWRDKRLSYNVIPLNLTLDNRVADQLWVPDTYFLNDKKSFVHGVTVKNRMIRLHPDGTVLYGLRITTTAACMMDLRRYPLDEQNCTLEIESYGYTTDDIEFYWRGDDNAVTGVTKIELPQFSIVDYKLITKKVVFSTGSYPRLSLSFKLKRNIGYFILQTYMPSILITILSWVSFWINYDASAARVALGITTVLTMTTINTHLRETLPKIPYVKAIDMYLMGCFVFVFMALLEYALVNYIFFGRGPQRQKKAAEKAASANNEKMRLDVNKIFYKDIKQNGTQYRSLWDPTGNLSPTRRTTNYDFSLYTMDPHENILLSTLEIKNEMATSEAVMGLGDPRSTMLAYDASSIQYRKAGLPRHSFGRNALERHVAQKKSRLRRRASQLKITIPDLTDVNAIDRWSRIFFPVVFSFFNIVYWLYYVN
T1 sequence (P18507 40-475 partner): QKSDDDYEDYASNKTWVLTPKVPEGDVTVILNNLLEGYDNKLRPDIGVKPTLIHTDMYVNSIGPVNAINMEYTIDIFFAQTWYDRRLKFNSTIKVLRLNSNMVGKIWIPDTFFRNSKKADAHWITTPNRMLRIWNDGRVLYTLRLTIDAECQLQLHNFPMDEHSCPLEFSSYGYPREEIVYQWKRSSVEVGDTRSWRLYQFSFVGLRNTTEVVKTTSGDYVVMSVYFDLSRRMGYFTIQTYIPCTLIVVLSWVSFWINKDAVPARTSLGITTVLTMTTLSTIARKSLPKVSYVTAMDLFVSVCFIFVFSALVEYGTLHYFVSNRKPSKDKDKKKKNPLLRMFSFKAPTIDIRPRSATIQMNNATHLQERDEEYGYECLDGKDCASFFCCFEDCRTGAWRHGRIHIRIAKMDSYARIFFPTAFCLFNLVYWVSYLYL
Protocol: Cellular electrophysiology is used to measure the pharmacological properties of GABAA receptor modulators in heterologous cell systems. Each compound is tested for its ability to affect GABA mediated currents at a submaximal agonist dose (GABA EC20=2 μM). HEK293T cells are stably transfected with the α1β2γ2 subunits of the GABAA receptor. Flasks or dishes of HEK293 GABAA cells were maintained in the medium (DMEM, 11% (v/v) heat inactivated FBS, 100 or 200 μg/ml G418, 40 μg/ml Hygromycin B, 80 μg/ml Zeocin) and incubated at 37° C. in a humidified incubator with 5% CO2. 12 to 24 hours prior to electrophysiological recordings, the cells were plated on glass cover slips placed in culture dishes and maintained under the same incubation and media conditions. The number of cells being plated on the cover slip should reach a confluence rate at which majority of the cells are single.
For the electrophysiological recordings in the study the following external and internal solutions were used (Table 1):
HEKA EPC 10 USB patch clamp amplifier (from HEKA Elektronik, Germany) was used in the whole cell recording. A cover slip with plenty of single HEK293T-GABAA cells on the surface was removed and placed into a continuously perfused (approximately 1-2 ml/minute) recording chamber mounted on an inverted microscope. GABAA Cl^− current was recorded from single cell using standard whole cell recording techniques. 2 μM GABA was used to evoke GABAA Cl^− current (2 μM of GABA was the EC10-EC20 value of agonist GABA obtained internally on the stable GABAA cells used in this study). After achieving break-in (whole-cell) configuration, the cell was voltage clamped at a holding potential of −80 mV. Only stable cells meeting the recording parameters (membrane resistance Rm>500 MΩ, access resistance (Ra)<15 MΩ, leak current<100 pA in 90% of the recording time) were used. 2 μM GABA was applied to the cell to induce stable Cl^− current first as control for about 2 seconds, test compounds (i.e., compounds of formula (AI), (I), (AII), and (II), or any subgenera thereof) were followed to be applied to the cells for 3 min, then 2 μM GABA was applied to observe the potentiation effect on the GABAA Cl^− current. Different doses of test compound from low to high were applied to the same cell when the cell was stable. A cell was considered stable when current size evoked by 2 μM GABA applied to the cell from time to time was similar. To minimize the possible desensitation of GABAA Cl^− current, duration between applications of test articles was set to 180 seconds.
Test compounds were dissolved in DMSO to form stock solutions (10 mM). Test compounds were diluted to 0.003, 0.01, 0.03, 0.1, 0.3, 1, 3 and 10 μM in bath solution. AU concentrations of test articles were tested on each cell. Data were analyzed using software provided by HEKA, Microsoft Excel and Graphpad Prism (Table 2).

[2] = Mouse PK study (i.v. and p.o.); assay type: in vivo; settings: plasma, male CD1 mice; for half-life: read-out: T1/2 (hr) i.v. (converted); for Vd: read-out: Vss; for bioavailability: 5 mg/kg p.o. vs 1 mg/kg i.v.
Protocol: Test compounds were dosed to male CD1 mice at 5 mg/kg by oral gavage (p.o.) or 1 mg/kg by intravenous injection (i.v.). Blood samples were taken at 0.083, 0.25, 0.5, 1.0, 3.0, 6.0 and 24 hours post i.v. dosing and at 0.25, 0.5, 1.0, 3.0, 6.0 and 24 hours post p.o. dosing. The plasma concentration of compounds were determined by HPLC.

[3] = iv, 1 mg/kg i.v., read-out: AUClast (hr*ng/mL) i.v.
[4] = po, 5 mg/kg p.o., read-out: AUClast (hr*ng/mL) p.o.

SMILES | pEC50 [1] | clearance ([2]; iv, 1 mg/kg i.v.) [mL/min/kg] | AUC(0-t) [2, 3] [ng·h/mL] | half-life ([2]; iv, 1 mg/kg i.v.) [h] | Vd ([2]; iv, 1 mg/kg i.v.) [L/kg] | Cmax ([2]; po, 5 mg/kg p.o.) [ng/mL] | Tmax ([2]; po, 5 mg/kg p.o.) [min] | bioavailability ([2]; po) [%] | AUC(0-t) [2, 4] [ng·h/mL] | Emax ([1]; HEK-293T, potentiation of 2 μM GABA current) [%]
C[C@@]1(O)CC[C@H]2[C@H](CC[C@@H]3[C@@H]2CC[C@]2(C)[C@@H](C(=O)Cn4nnn(CC5CC5)c4=O)CC[C@@H]32)C1 [Example 7, 1-(cyclopropylmethyl)-4-(2-((3R,5R,8R,9R,10S,13S,14S,17S)-3-hydroxy-3,13-dimethylhexadecahydro-1H-cyclopenta[a]phenanthren-17-yl)-2-oxoethyl)-1,4-dihydro-5H-tetrazol-5-one] | 7.00 | 68.7 | 239 | 0.6 | 1.69 | 186 | 30 | 27.6 | 326 | –
CC(C)n1nnn(CC(=O)[C@H]2CC[C@H]3[C@@H]4CC[C@@H]5C[C@](C)(O)CC[C@@H]5[C@H]4CC[C@]23C)c1=O [Example 4, 1-(2-((3R,5R,8R,9R,10S,13S,14S,17S)-3-hydroxy-3,13-dimethylhexadecahydro-1H-cyclopenta[a]phenanthren-17-yl)-2-oxoethyl)-4-isopropyl-1,4-dihydro-5H-tetrazol-5-one] | 6.85 | 24.8 | 659 | 0.54 | 0.88 | 808 | 15 | 25.8 | 782 | –
COc1ccc(-n2nnn(CC(=O)[C@H]3CC[C@H]4[C@@H]5CC[C@@H]6C[C@](C)(O)CC[C@@H]6[C@H]5CC[C@]34C)c2=O)cc1 [Example 15, 1-(2-((3R,5R,8R,9R,10S,13S,14S,17S)-3-hydroxy-3,13-dimethylhexadecahydro-1H-cyclopenta[a]phenanthren-17-yl)-2-oxoethyl)-4-(4-methoxyphenyl)-1,4-dihydro-5H-tetrazol-5-one] | 8.30 | 30 | 542 | 1.05 | 1.76 | 106 | 60 | 10.8 | 292 | –
C[C@@]1(O)CC[C@H]2[C@H](CC[C@@H]3[C@@H]2CC[C@]2(C)[C@@H](C(=O)Cn4nnn(C(F)(F)F)c4=O)CC[C@@H]32)C1 [Example 22, 1-(2-((3R,5R,8R,9R,10S,13S,14S,17S)-3-hydroxy-3,13-dimethylhexadecahydro-1H-cyclopenta[a]phenanthren-17-yl)-2-oxoethyl)-4-(trifluoromethyl)-1,4-dihydro-5H-tetrazol-5-one] | 7.85 | 130 | 118 | 0.3 | 2.59 | 213 | 30 | 34.2 | 203 | –
CC(C)(C)n1nnn(CC(=O)[C@H]2CC[C@H]3[C@@H]4CC[C@@H]5C[C@](C)(O)CC[C@@H]5[C@H]4CC[C@]23C)c1=O [Example 5, 1-(tert-butyl)-4-(2-((3R,5R,8R,9R,10S,13S,14S,17S)-3-hydroxy-3,13-dimethylhexadecahydro-1H-cyclopenta[a]phenanthren-17-yl)-2-oxoethyl)-1,4-dihydro-5H-tetrazol-5-one] | 6.82 | 24.5 | 634 | 7.83 | 8.3 | 276 | 30 | 20.5 | 633 | –
CCn1nnn(CC(=O)[C@H]2CC[C@H]3[C@@H]4CC[C@@H]5C[C@](C)(O)CC[C@@H]5[C@H]4CC[C@]23C)c1=O [Example 3, 1-ethyl-4-(2-((3R,5R,8R,9R,10S,13S,14S,17S)-3-hydroxy-3,13-dimethylhexadecahydro-1H-cyclopenta[a]phenanthren-17-yl)-2-oxoethyl)-1,4-dihydro-5H-tetrazol-5-one] | 7.03 | 24.3 | 673 | 0.57 | 0.93 | 973 | 30 | 40.5 | 1330 | –
C[C@@]1(O)CC[C@H]2[C@H](CC[C@@H]3[C@@H]2CC[C@]2(C)[C@@H](C(=O)Cn4nnn(-c5cccc(C#N)c5)c4=O)CC[C@@H]32)C1 [Example 14, 3-(4-(2-((3R,5R,8R,9R,10S,13S,14S,17S)-3-hydroxy-3,13-dimethylhexadecahydro-1H-cyclopenta[a]phenanthren-17-yl)-2-oxoethyl)-5-oxo-4,5-dihydro-1H-tetrazol-1-yl)benzonitrile] | 8.15 | 20.5 | 771 | 1.44 | 1.92 | 250 | 60 | 28.9 | 1120 | 974
C[C@@]1(O)CC[C@H]2[C@H](CC[C@@H]3[C@@H]2CC[C@]2(C)[C@@H](C(=O)Cn4nnn(-c5cccc(F)c5)c4=O)CC[C@@H]32)C1 [Example 12, 1-(3-fluorophenyl)-4-(2-((3R,5R,8R,9R,10S,13S,14S,17S)-3-hydroxy-3,13-dimethylhexadecahydro-1H-cyclopenta[a]phenanthren-17-yl)-2-oxoethyl)-1,4-dihydro-5H-tetrazol-5-one] | 8.03 | 8.33 | 1880 | 6.22 | 2.86 | 388 | 60 | 42.4 | 4140 | –
